Test: physical and chemical properties of the hydroxybenzoate salts (stated, no method described)
Type: physicochemical
Conditions: solid salt, free-flowing crystalline powder

Substance: (2S)-(4E)-N-methyl-5-(5-isopropoxy-3-pyridinyl)-4-penten-2-amine p-hydroxybenzoate [Example 1]
- physical and chemical stability of the salt: physically and chemically stable

Source: patent US20080249142A1, “HYDRO[…] OF ME[…]” (Targacept, Inc., priority 2004, published 2008)
